This is an account of results in US20150182745A1, “IONTOPHORETIC DEVICE FOR DOSAGING OF AN ACTIVE INGREDIENT” (NOVAGENT OY, priority 2012, published 2015).

The conditions of data set [1]: swine. From the text:
The invention is further described more in detail by the following examples. In the examples a device according to FIG. 2 was used. The electrodes are made of a carbon fiber textile, onto which a hydrophobic micro-porous layer of teflon is fitted. As model agent was used tacrine, which is a cationic drug. The chamber section 13a, the electrolyte space, comprised a 0.15 M aqueous solution of sodium sulphate and the chamber section 13b, the space comprising the active agent, comprised a 0.15 M aqueous solution of sodium chloride, which corresponds to a physiological salt solution. […] The membrane 15 was either a synthetic membrane (UC 101T) or swine skin. In the experiments were used Smopex®-ion exchanging fibres, made by Smoptech (Johnson Matthey).

The conditions of data set [2]: in vivo; cited from earlier work.

With `Nc1c2c(nc3ccccc13)CCCC2` [tacrine], in data set [1], the passive flow was determined as 1.99 μg cm^−2h^−1 and the “passive flow (slope)” value is 1.81 μg cm^−2h^−1. For the same molecule, in data set [2], the “clearance CL” value was 150 dm^3h^−1 and the therapeutic window was 5-30 μg dm^−3.
